In PubChem BioAssay AID838 (SRMLSC, 2007):
Activity calls are given as the source filed them. How the calls were made is not given here.

Each compound was assayed against Pantothenate synthetase (Mycobacterium tuberculosis (strain ATCC 25618 / H37Rv)) (UniProt P9WIL5) (assay: Biochemical confirmation of M. tuberculosis pantothenate synthetase inhibitors (AID 838)). Conditions: M. tuberculosis pantothenate synthetase enzyme inhibition.
Chain of Pantothenate synthetase (Mycobacterium tuberculosis (strain ATCC 25618 / H37Rv)) (P9WIL5 whole entry, looked up): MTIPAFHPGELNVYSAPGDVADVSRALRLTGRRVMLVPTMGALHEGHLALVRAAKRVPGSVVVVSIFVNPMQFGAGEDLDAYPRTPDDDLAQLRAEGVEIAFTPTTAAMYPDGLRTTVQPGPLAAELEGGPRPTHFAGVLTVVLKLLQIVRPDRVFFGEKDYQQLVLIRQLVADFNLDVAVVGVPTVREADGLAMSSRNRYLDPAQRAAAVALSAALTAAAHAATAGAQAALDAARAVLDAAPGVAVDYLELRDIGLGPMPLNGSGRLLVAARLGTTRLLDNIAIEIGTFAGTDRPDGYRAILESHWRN

Q: For `Cc1ccccc1Cn1cc(NC(=O)c2noc3c2CC(C(C)(C)C)CC3)cn1` (stereo not given), which IC50 is on record?
A: The IC50 was 150 nM.

Q: Which IC50 does the source give for `O=C(Nc1cnn(Cc2ccc(F)cc2)c1)c1noc2ccc(-c3ccccc3)cc12` here?
A: The IC50 was 108000 nM.

Q: For `CC(C)(C)C1CCc2onc(C(=O)Nc3cnn(Cc4ccc(I)cc4)c3)c2C1` (stereo not given), which IC50 is on record?
A: Its IC50 is 68 nM.

Q: Which IC50 does the source give for `CC(C)(C)C1CCc2onc(C(=O)Nc3cnn(Cc4ccc(F)cc4F)c3)c2C1` (stereo not given) here?
A: The IC50 was 128 nM.

Q: For `COc1ccc(-c2cc(C(=O)Nc3cnn(Cc4ccccc4C)c3)no2)cc1`, which IC50 is on record?
A: Its IC50 is 47700 nM.

Q: `CC(C)(C)c1ccc2onc(C(=O)Nc3cnn(Cc4cccc(F)c4)c3)c2c1` was tested. Which IC50 did it give?
A: Its IC50 is 640 nM.

Q: Which IC50 does the source give for `CC(C)(C)C1CCc2onc(C(=O)Nc3cnn(Cc4ccc(Cl)cc4Cl)c3)c2C1` (stereo not given) here?
A: The IC50 was 111 nM.

Q: How did the IC50 turn out when `CC(C)(C)C1CCc2onc(C(=O)Nc3cnn(Cc4cccc(I)c4)c3)c2C1` (stereo not given) was run?
A: Its IC50 is 101 nM.

Q: How did the IC50 turn out when `CC(C)(C)c1ccc2onc(C(=O)Nc3cnn(Cc4ccc(F)cc4)c3)c2c1` was run?
A: Its IC50 is 351 nM.

Q: Which IC50 does the source give for `CC(C)(C)c1ccc2onc(C(=O)Nc3cnn(Cc4ccc(I)cc4)c3)c2c1` here?
A: The IC50 was 36300 nM.

Q: Which IC50 does the source give for `CC(C)(C)C1CCc2onc(C(=O)Nc3cnn(Cc4ccccc4I)c3)c2C1` (stereo not given) here?
A: Its IC50 is 104 nM.

Q: Which IC50 does the source give for `CC(C)(C)C1CCc2onc(C(=O)Nc3cnn(Cc4ccccc4C(F)(F)F)c3)c2C1` (stereo not given) here?
A: The IC50 was 274 nM.

Same assay, conditions: M. tuberculosis pantothenate synthetase enzyme inhibition; at 100 µM; hits give high values

Q: `COc1cccc(-c2cc(C(=O)Nc3cnn(Cc4ccccc4C)c3)no2)c1` was tested. Which inhibition did it give?
A: Its inhibition is “inactive”.

Q: Which inhibition does the source give for `Cc1cc(C(=O)N2CCc3[nH]cnc3C2c2ccc(-n3cncn3)cc2)no1` (stereo not given) here?
A: Its inhibition is “inactive”.

Q: With `COc1ccccc1-c1cc(C(=O)Nc2cnn(Cc3ccccc3C)c2)no1` as the compound, how does the inhibition read?
A: Its inhibition is “inactive”.

Q: For `O=C(Nc1cnn(Cc2ccc(F)cc2)c1)c1noc2c1CCCC2`, which inhibition is on record?
A: The inhibition was “inactive”.

Q: `O=C(Cn1nc(C2CC2)cc1C(F)F)Nc1cnn(Cc2c(F)cc(F)c(F)c2F)c1` was tested. Which inhibition did it give?
A: Its inhibition is “inactive”.

Q: With `Cc1cc(C(=O)N2CCCN(c3cc(-c4cc(F)ccc4C)ncn3)CC2)no1` as the compound, how does the inhibition read?
A: The inhibition was “inactive”.

Q: Which inhibition does the source give for `Cc1cc(C(=O)N2CCCC(CN3CCc4ccccc4C3)C2)no1` (stereo not given) here?
A: Its inhibition is “inactive”.

Q: Which inhibition does the source give for `COc1cc(CN(C)C(=O)c2ccc(N3CCC(O)(Cc4ccccc4)CC3)nc2)cc(OC)c1OC` here?
A: The inhibition was “inactive”.

Q: `O=C(Nc1cnn(Cc2ccc(Cl)cc2Cl)c1)c1noc2c1CCCCC2` was tested. Which inhibition did it give?
A: Its inhibition is “inactive”.

Q: With `CCc1ccc(C2c3nc[nH]c3CCN2C(=O)c2cc(C)on2)cc1` (stereo not given) as the compound, how does the inhibition read?
A: The inhibition was “inactive”.

Q: Which inhibition does the source give for `COc1cccc(C2c3nc[nH]c3CCN2C(=O)c2cc(C)on2)c1` (stereo not given) here?
A: Its inhibition is “inactive”.

Q: For `Cc1cc(C(=O)N2CCCC(CN3CCN(c4cnccn4)CC3)C2)no1` (stereo not given), which inhibition is on record?
A: Its inhibition is “inactive”.

Q: Which inhibition does the source give for `O=C(Nc1cnn(Cc2ccc(F)cc2)c1)c1noc2c1CC(c1ccccc1)CC2` (stereo not given) here?
A: Its inhibition is “inactive”.

Q: With `O=C(Nc1cnn(Cc2ccc(F)cc2)c1)c1noc2ccccc12` as the compound, how does the inhibition read?
A: The inhibition was “inactive”.

Q: Which inhibition does the source give for `Cc1cc(C(=O)N2CCCN(c3cc(-c4ccc5ccccc5c4)ncn3)CC2)no1` here?
A: Its inhibition is “inactive”.

Q: How did the inhibition turn out when `CCOc1ccc(Cn2cc(NC(=O)C(C)(C)n3cc([N+](=O)[O-])cn3)cn2)cc1OCC` was run?
A: The inhibition was “inactive”.

Q: For `COc1cc(CN(C)C(=O)c2ccc(N3CCC(O)(c4cccc(C(F)(F)F)c4)CC3)nc2)cc(OC)c1OC`, which inhibition is on record?
A: Its inhibition is “inactive”.

Q: For `COc1cc(C(=O)Nc2cnn(Cc3cccc(I)c3)c2)cc(OC)c1OC`, which inhibition is on record?
A: The inhibition was “inactive”.

Q: Which inhibition does the source give for `O=C(Nc1cnn(Cc2ccc(Cl)cc2Cl)c1)c1noc2c1CCCC2` here?
A: The inhibition was “inactive”.

Q: How did the inhibition turn out when `Cc1cc(C(=O)N2CCCC(CN3CCC(C(F)(F)F)CC3)C2)no1` (stereo not given) was run?
A: The inhibition was “inactive”.

Q: With `CCCN(CC1CC1)CC1CCCN(C(=O)c2cc(C)on2)C1` (stereo not given) as the compound, how does the inhibition read?
A: Its inhibition is “inactive”.

Q: `Cc1ccccc1Cn1cc(NC(=O)c2cc(-c3cccs3)on2)cn1` was tested. Which inhibition did it give?
A: Its inhibition is “inactive”.

Q: Which inhibition does the source give for `Cc1cc(C(=O)NCCc2nc(C(=O)NCCN(C)C)cs2)no1` here?
A: The inhibition was “inactive”.

Q: How did the inhibition turn out when `Cc1ccccc1Cn1cc(NC(=O)c2cc(C3CC3)on2)cn1` was run?
A: The inhibition was “inactive”.

Q: Which inhibition does the source give for `CCCc1cc(C(=O)Nc2cnn(Cc3ccc(F)cc3)c2)no1` here?
A: The inhibition was “inactive”.

Q: For `Cc1cc(C(=O)N2CCc3[nH]cnc3C2c2ccccc2F)no1` (stereo not given), which inhibition is on record?
A: The inhibition was “inactive”.

Q: Which inhibition does the source give for `Cc1onc(-c2ccccc2Cl)c1C(=O)Nc1cnn(Cc2ccccc2)c1` here?
A: The inhibition was “inactive”.

Q: Which inhibition does the source give for `Cc1noc(C)c1CN1C(=O)COc2cc(C(=O)NCc3ccc(C(F)(F)F)nc3)ccc21` here?
A: Its inhibition is “inactive”.

Q: For `Cc1cc(C(=O)N2CCCC(CN(C)Cc3ccc(Cl)cc3)C2)no1` (stereo not given), which inhibition is on record?
A: Its inhibition is “inactive”.

Q: For `Cc1ccccc1Cn1cc(NC(=O)c2noc3c2CCCC3)cn1`, which inhibition is on record?
A: Its inhibition is “inactive”.

Q: `Cc1cc(C(=O)N2CCc3[nH]cnc3C2c2ccc(F)cc2)no1` (stereo not given) was tested. Which inhibition did it give?
A: Its inhibition is “inactive”.

Q: How did the inhibition turn out when `O=C(Nc1cnn(Cc2ccc(F)cc2)c1)c1cc(C2CC2)on1` was run?
A: The inhibition was “inactive”.

Q: `CC(C)(C)c1ccc2onc(C(=O)Nc3cnn(Cc4cccc(F)c4)c3Cl)c2c1` was tested. Which inhibition did it give?
A: Its inhibition is “inactive”.

Q: `Cc1ccccc1Cn1cc(NC(=O)c2cc(-c3ccco3)on2)cn1` was tested. Which inhibition did it give?
A: The inhibition was “inactive”.

Q: `Cc1cccc(CN2C(=O)COc3cc(C(=O)N4CCN(Cc5ccccc5)CC4)ccc32)c1` was tested. Which inhibition did it give?
A: Its inhibition is “inactive”.

Q: How did the inhibition turn out when `COc1cc(CN(C)C(=O)c2ccc(N3CCc4ccccc4C3)nc2)cc(OC)c1OC` was run?
A: The inhibition was “inactive”.

Q: `COCCN(CC1CCCN(C(=O)c2cc(C)on2)C1)C(C)C` (stereo not given) was tested. Which inhibition did it give?
A: The inhibition was “inactive”.

Q: For `CCN(Cc1ccncc1)CC1CCCN(C(=O)c2cc(C)on2)C1` (stereo not given), which inhibition is on record?
A: The inhibition was “inactive”.
